From PMC12596218 (Journal of Lipid Research, 2025)
Where a chain is given by its changes, count along the chain named. Names and notes keep the numbering of the source.

B1: murine Asbt (mAsbt) (Mus musculus) (protein)
chain: MDNSSVCPPNATVCEGDSCVVPESNFNAILNTVMSTVLTILLAMVMFSMGCNVEVHKFLGHIKRPWGIFVGFLCQFGIMPLTGFILSVASGILPVQAVVVLIMGCCPGGTGSNILAYWIDGDMDLSVSMTTCSTLLALGMMPLCLFVYTKMWVDSGTIVIPYDSIGISLVALVIPVSFGMFVNHKWPQKAKIILKIGSITGVILIVLIAVIGGILYQSAWIIEPKLWIIGTIFPIAGYSLGFFLARLAGQPWYRCRTVALETGMQNTQLCSTIVQLSFSPEDLNLVFTFPLIYTVFQLVFAAVILGIYVTYRKCYGKNDAEFLEKTDNEMDSRPSFDETNKGFQPDEK
B2: NTCP (Homo sapiens) (protein)
chain: MEAHNASAPFNFTLPPNFGKRPTDLALSVILVFMLFFIMLSLGCTMEFSKIKAHLWKPKGLAIALVAQYGIMPLTAFVLGKVFRLKNIEALAILVCGCSPGGNLSNVFSLAMKGDMNLSIVMTTCSTFCALGMMPLLLYIYSRGIYDGDLKDKVPYKGIVISLVLVLIPCTIGIVLKSKRPQYMRYVIKGGMIIILLCSVAVTVLSAINVGKSIMFAMTPLLIATSSLMPFIGFLLGYVLSALFCLNGRCRRTVSMETGCQNVQLCSTILNVAFPPEVIGPLFFFPLLYMIFQLGEGLLLIAIFWCYEKFKTPKDKTKMIYTAATTEETIPGALGNGTYKGEDCSPCTA
B3: NTCP M290S (NTCP→ASBT) (Homo sapiens; M290S) (protein)
chain: B2 chain with M290S
B4: NTCP M290T/I291V (NTCP→mAsbt) (Homo sapiens; I291V/M290T) (protein)
chain: B2 chain with M290T, I291V
B5: ASBT (Homo sapiens) (protein)
chain: MNDPNSCVDNATVCSGASCVVPESNFNNILSVVLSTVLTILLALVMFSMGCNVEIKKFLGHIKRPWGICVGFLCQFGIMPLTGFILSVAFDILPLQAVVVLIIGCCPGGTASNILAYWVDGDMDLSVSMTTCSTLLALGMMPLCLLIYTKMWVDSGSIVIPYDNIGTSLVSLVVPVSIGMFVNHKWPQKAKIILKIGSIAGAILIVLIAVVGGILYQSAWIIAPKLWIIGTIFPVAGYSLGFLLARIAGLPWYRCRTVAFETGMQNTQLCSTIVQLSFTPEELNVVFTFPLIYSIFQLAFAAIFLGFYVAYKKCHGKNKAEIPESKENGTEPESSFYKANGGFQPDEK
B6: ASBT S294T/I295V (ASBT→mAsbt) (Homo sapiens; I295V/S294T) (protein)
chain: B5 chain with S294T, I295V

What was measured:
mAsbt [1] = conditions: ref 42 Hallén et al. (2002); read-out: Ki mAsbt inhibition; cited from earlier work
mAsbt [2] = experiment: mAsbt inhibition and TC transport by Hallén et al. (2002); format: cell-based, mouse; conditions: from Ki values of ref 42
SOAT = target: T1, SOAT (Homo sapiens, UniProt Q3KNW5); experiment: [3H]DHEAS transport inhibition assay in SOAT-HEK293 cells; format: cell-based; conditions: inhibitor at 100 μM, 1 μM [3H]DHEAS, 10 min
T1 construct: stably transfected with the full open reading frames of human NTCP, ASBT, SOAT, OATP1B1, OATP1B3, OATP2B1, and murine Asbt (mAsbt); expressed in transfected cells; host or cells: HEK293 (Flp-In), stably transfected, tetracycline-induced
T1 sequence (Q3KNW5 1-377): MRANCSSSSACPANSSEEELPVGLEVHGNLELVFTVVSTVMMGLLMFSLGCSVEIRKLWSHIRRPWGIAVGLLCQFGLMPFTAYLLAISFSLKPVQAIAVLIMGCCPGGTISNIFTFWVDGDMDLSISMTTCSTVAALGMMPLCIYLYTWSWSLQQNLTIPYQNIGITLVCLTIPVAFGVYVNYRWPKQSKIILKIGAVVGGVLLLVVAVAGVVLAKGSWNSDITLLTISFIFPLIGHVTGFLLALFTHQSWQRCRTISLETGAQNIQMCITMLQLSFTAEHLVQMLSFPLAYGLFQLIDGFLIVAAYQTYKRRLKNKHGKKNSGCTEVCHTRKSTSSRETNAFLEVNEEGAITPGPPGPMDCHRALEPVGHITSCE
Text: (§1) Human embryonic kidney HEK293 cells, stably transfected with the full open reading frames of human NTCP, ASBT, SOAT, OATP1B1, OATP1B3, OATP2B1, and murine Asbt (mAsbt) were used as reported ([18], [20], [21], [22], [23]). The NTCP, ASBT, and mAsbt constructs were C-terminally tagged with the FLAG epitope, and the SOAT construct was C-terminally tagged with green fluorescent protein. Non-transfected Flp-In HEK293 cells (Thermo Fisher Scientific) served as the control. All cell lines were maintained at 37°C, 5% CO2 and 95% humidity in DMEM/F-12 medium (Thermo Fisher Scientific) supplemented with 10% fetal calf serum (Sigma-Aldrich), 4 mM L-glutamine (PAA) and penicillin/streptomycin (PAA). Expression of the respective carrier protein was induced by tetracycline treatment at 1 μg/ml (Carl Roth GmbH + Co. KG).
(§2) Cells were seeded onto poly-L-lysine-coated 96-well plates, induced with 1 μg/ml tetracycline, and grown to confluence over 72 h at 37°C. Then, cells were washed with tempered (37°C) phosphate-buffered saline (PBS, containing 137.0 mM NaCl, 2.7 mM KCl, 1.5 mM KH2PO4, and 7.3 mM Na2HPO4, at pH 7.4) and preincubated with 80 μl sodium transport buffer (STB, containing 142.9 mM NaCl, 4.7 mM KCl, 1.2 mM MgSO4, 1.2 mM KH2PO4, 1.8 mM CaCl2, and 20.0 mM HEPES, at pH 7.4) for 5 min at 37°C. For inhibition studies, the medium was replaced by 80 μl STB containing the respective inhibitor or solvent alone and cells were further incubated for 5 min at 37°C. Transport experiments were started by adding 20 μl of a 5-fold concentrated substrate solution (solved in STB). For transport experiments under sodium-free conditions the same buffer composition was used as for STB, but sodium chloride was substituted with equimolar concentrations of choline chloride as previously reported ([20], [24]). Transport experiments were stopped by washing twice with ice-cold PBS and the plates were kept cool on ice until adding the lysis buffer [1% sodium dodecyl sulfate (SDS) and 1 N NaOH]. Then, the cell-associated radioactivity of the respective tritium-labeled substrate or ligand was quantified by liquid scintillation counting using MicroScint-20 scintillation cocktail (Revvity) in a Packard Microplate Scintillation Counter TopCount NXT (Packard Instrument Company). For IC50 transport inhibition measurements, the mean uptake values measured in non-carrier-expressing HEK293 control cells were defined as 0% uptake control and were subtracted from all other values. Values from cells without inhibitor and solvent alone were set to 100%. Finally, all net transport data were expressed as uptake or binding as % of control. All transport or inhibition graphs were generated with GraphPad Prism 6 (GraphPad). Determination of half maximal inhibitory concentrations (IC50) was done by nonlinear regression analysis using the equation log (inhibitor) versus response—variable slope settings. All data points of the IC50 curves represent means ± SD of quadruplicate determinations. For Km measurements, BS uptake in the absence of sodium was regarded as carrier-independent unspecific uptake and was subtracted from the transport rates in the presence of sodium to obtain carrier-specific uptake rates (indicated as dashed lines). From the specific uptake rates, Michaelis Menten Km values were calculated by non-linear regression analysis.

ASBT [3] = target: T2, ASBT (Homo sapiens, UniProt Q12908); experiment: [3H]TC transport and inhibition assay in ASBT-HEK293 cells; format: cell-based; conditions: inhibitor at 100 μM, 1 μM [3H]TC, 10 min
T2 construct: stably transfected with the full open reading frames of human NTCP, ASBT, SOAT, OATP1B1, OATP1B3, OATP2B1, and murine Asbt (mAsbt); expressed in transfected cells; host or cells: HEK293 (Flp-In), stably transfected, tetracycline-induced
T2 sequence (Q12908 1-348): B5 chain
Text: as §1, §2

ASBT [4] = target: T2, ASBT; experiment: Transport inhibition and recovery assay (inhibitor washout) in ASBT-HEK293 cells; format: cell-based; conditions: 100 μM inhibitor, 5 min preincubation, 1 μM [3H]TC
ASBT [5] = target: T2, ASBT; experiment: as above; format: cell-based; conditions: 100 μM inhibitor 5 min, 240 min recovery
Description: HEK293 cells stably expressing ASBT were seeded onto poly-L-lysine-coated 96-well plates, induced with 1 μg/ml tetracycline, and grown to confluence over 72 h at 37°C. Non-carrier-expressing HEK293 cells were used as control. Then, cells were washed with tempered (37°C) PBS and equilibrated for 5 min with STB. […] After inhibitor preincubation, cells were washed with tempered (37°C) PBS and further incubated in inhibitor-free DMEM (Thermo Fisher Scientific) for 30, 60, 120, or 240 min at 37°C. […] Finally, cell associated radioactivity was determined using the MicroBeta2 liquid scintillation counter (Revvity). For each inhibitor, the mean values from noncarrier-expressing HEK293 cells were set to 0% and transport measurements in the absence of inhibitor (solvent control) were set to 100%.
In the second setup, the inhibitor was thoroughly washed out after the preincubation phase and cells were placed on inhibitor-free medium for different time intervals of 0–240 min (indicated by “recovery time” in Fig. 7A).

[6] = substrate: C[C@H](CCC(=O)NCCS(=O)(=O)O)[C@H]1CC[C@H]2[C@@H]3[C@H](O)C[C@@H]4C[C@H](O)CC[C@]4(C)[C@H]3C[C@H](O)[C@]12C; experiment: cells, lysate or membranes; conditions: other: sodium-dependent specific uptake, initial linear phase, pH 7.4

Row | Molecule | Km ([6]; 37.0 °C) | Km [6] | also measured
1 | CCCC[C@]1(CC)CS(=O)(=O)c2ccccc2[C@@H](c2ccccc2)N1 [2164U90] |  |  | Ki (mAsbt [1]): 68 nM; Difference in inhibitor potency mAsbt versus ASBT (mAsbt [2]): 150 fold
2 | Cc1c(C)c2c(c(C)c1O)CCC(C)(COc1ccc(CC3SC(=O)NC3=O)cc1)O2 (stereo not drawn) [troglitazone] |  |  | Inhibition of SOAT [3H]DHEAS transport (SOAT): significantly inhibited; Inhibition of ASBT [3H]TC transport (ASBT [3]): significantly inhibited; ASBT inhibition with inhibitor present during uptake (inhibitor + [3H]TC) (ASBT [4]): nearly complete ASBT inhibition; ASBT recovery after washout and 240 min in inhibitor-free medium (ASBT [5]): only partial recovery
3 | B1 | 272.3 µM |  | 
4 | B2 | 90.9 µM |  | 
5 | B3 |  | 15.9 µM | 
6 | B4 |  | 69.5 µM | 
7 | B5 | 46.0 µM |  | 
8 | B6 |  | 25.9 µM | 
